Measured values published in US20230158259A1, “PRODUCTS OF MANUFACTURE AND METHODS FOR TREATING, AMELIORATING OR PREVENTING MICROBIAL INFECTIONS” (TOPELIA AUST LIMITED, priority 2020, published 2023).

Experiments:
COVID-19 coronavirus = assay type: in vivo, human; details: group of elderly cruise travelers
coronavirus COVID-19 = assay type: in vivo; details: after 4 days of osteltamivir alone, started at time of contact

Structure (SMILES): CCN(CC)CCCC(C)Nc1ccnc2cc(Cl)ccc12 (stereo not drawn) [chloroquine]
- contraction of COVID-19 coronavirus (COVID-19 coronavirus): None contract COVID-19 coronavirus
- test for the virus upon arrival home after the cruise (COVID-19 coronavirus): negative

Structure (SMILES): CCOC(=O)C1=C[C@@H](OC(CC)CC)[C@H](NC(C)=O)[C@@H](N)C1 [osteltamivir, oseltamivir]
- blood result for COVID-19 virus (coronavirus COVID-19): positive
